Source: patent US11911504B2, “Apparatus and method for protecting neurons and reducing inflammation and scarring” (GALEN THERAPEUTICS LLC, priority 2018, dated 2024)

Tests used:
[1] = system: GABA neurons; assay: Whole-cell patch recording in lumbar spinal cord slices; assay type: cell-based, mouse; details: spinal cord slices of PBN treated mice
[2] = system: mechanical hyperalgesia of the affected hind paw; assay: Mechanical hyperalgesia (von Frey foot withdrawal) after L5 spinal nerve ligation; assay type: in vivo; details: SNL mice, PBN 150 mg/kg i.p. or 100 μg i.t.
Protocol: Inhibition of neuron death using one of the anti-oxidant agents described above is examined in a spinal injury model as described below. The oxidation inhibitor used is phenyl-N-tert-butylnitrone, a ROS scavenger. Peripheral nerve injury is induced by tightly ligating the L5 spinal nerve under isoflurane anesthesia (2% induction and 1.5% maintenance). Seven days after SNL, mice are randomly divided into treatment and control groups. Mice belonging to one treatment group are injected by one of two different routes with phenyl-N-tert-butylnitrone, PBN (Sigma, St. Louis, Mo.). Doses of PBN used are 150 mg/kg (i.p., 0.1 ml) or 100 μg (i.t., 5 μl), dissolved in saline at a concentration of 20 mg/ml. Mice in the control groups are treated with the same volume of saline. […]
Pain behavior is tested by assessing mechanical hyperalgesia of the affected hind paw. […] Mechanical hyperalgesia of the hind paw is measured by determining the frequency of foot withdrawals to 10 stimuli applied with a von Frey (vF) filament (Stoelting, Wood Dale, Ill.). […] Response rates are calculated as a percentage of the number of positive responses/10 stimuli.

[3] = system: rat limbic system; details: pretreatment of rats, systemic kainic acid seizure; cited from earlier work

Row | SMILES | action potential discharge (excitatory) pattern of surviving neurons [1] | excitability and firing activity of GABA neurons [1] | foot withdrawal to von Frey filament (pain behavior) [2] | activator protein-1- and NF-kB-binding activity [3] | increased protein nitration [3] | neuronal damage resulting from seizure activity in limbic structures [3] | spectrin proteolysis [3]
1 | CC(C)(C)[N+]([O-])=Cc1ccccc1 [PBN, phenyl-N-tert-butylnitrone] | superior action potential discharge (excitatory) pattern | restore excitability and prevent suppression of firing activity | withdraw their foot less abruptly | – | – | – | –
2 | COc1cccc(C=NCCN=Cc2cccc(OC)c2[O-])c1[O-].[Cl-].[Mn+3] [EUK-134] | – | – | – | reduction | reduction | reduction | reduction
